In assay [1] the test system is TNF-α. In words: LPS induced sepsis for measurement of TNF-α inhibition in mice. The format is in vivo, Female Swiss albino mice. As to conditions: 10 mg/kg oral, 30 min before LPS i.p., serum 90 min after LPS. On the procedure:
LPS Induced Sepsis for Measurement of TNF-α Inhibition in Mice:
The LPS induced sepsis model in mice was performed as described by Les sekut et al (J Lab Clin Med 1994; 124, 813-20). Female Swiss albino mice were selected and the body weights were equivalent within each group. The mice were fasted for 20 h with free access to water. The mice were dosed orally with the test compound suspended in vehicle containing 0.5% Tween 80 in 0.25% Carboxy-methylcellulose sodium salt. The control mice were administered the vehicle alone. After 30 minutes of oral dosing, mice were injected with 500 μg of Lipopolysaccharide (Escherichia coli, LPS: B4 from Sigma) in phosphate buffer saline solution into the intraperitoneal cavity of the mice. After 90 minutes of LPS administration mice were bled via retro-orbital sinus puncture. Blood samples were stored overnight at 4° C. Serum samples were collected by centrifuging the samples at 4000 rpm for 15 minutes at 4° C. Immediately the serum samples were analysed for TNF-α levels using commercially available mouse TNF-α ELISA kit (Amersham Biosciences) and assay was performed by the manufacturer instruction.

Assay [2] addresses human PDE4B enzyme (PDE4B2) (Homo sapiens, UniProt Q07343). In words: Phosphodiesterase 4 screening assay (SPA, [3H]-cAMP). The assay is classed as biochemical. The settings on record: 100 nM compound; 0.5 μM cAMP. How it is done: Phosphodiesterase 4 Screening Assay:
PDE4 (Phosphodiesterase type IV) enzymes convert cyclic AMP (cAMP) into AMP. The assay is performed to determine the effect of test compounds on the inhibition of purified human PDE4B enzyme.
The assay involves the detection of the Tritiated AMP (product) using SPA beads known as yittrium silicate. The linear AMP bind preferentially to SPA yittrium silicate beads compared to cyclic nucleotides in the presence of zinc sulphate. The binding of the radiolabelled product to the bead brings the isotope into close proximity to allow radiation from the tritium to excite the scintillant within the bead to emit light. The unbound radiolabel is not close enough to allow this energy transfer and the light emitted due to the binding of tritiated AMP is detected as cpm (counts per minute).
PDE Activity (SPA Based Assay Protocol):
PDE4B activity was inhibited by the compounds according to the invention in a modified SPA (scintillation proximity assay) test, supplied by GE Healthcare Life Sciences (see procedural instructions “Phosphodiesterase [^3H]-cAMP SPA enzyme assay, code TRKQ 7090”), carried out in 96-well microtitre plates. The test volume is 100 μL and contains 50 mM Tris buffer (pH 7.4), 8.3 mM Mg^2+, in the presence of inhibitor or test compound, and containing PDE4B2 enzyme (sufficient to ensure that 10-20% of the cAMP is converted, under the said experimental conditions). […] After a pre-incubation of 5 minutes at 37° C., the reaction is started by adding the substrate (cAMP; 0.5 μM cAMP, including about 50,000 cpm of [^3H]-cAMP) and the assays are incubated for a further 10 minutes; after that, they are stopped by adding SPA beads containing 18 mM ZnSO4 (50 μl). After the beads have been sedimented (>30 minutes), the microtitre plates are analyzed in a Microplate luminescence detection device (TopCount* NXT; PerkinElmer Life Sciences). Where, the signal in the absence of enzyme is defined as the background. 100% activity was defined as the signal detected in the presence of enzyme and DMSO with the background subtracted. The corresponding IC50 values of the compounds for the inhibition of PDE4B2 activity are determined from the concentration-effect curves by means of non-linear regression fit of the standard 4-parameter/multiple binding sites equation from a eight- to ten-point titration. (Catherine B. et al. Anal. Biochem., 1999, 275(2), pp. 148-155, David M. E. Biochem. Pharmacol., 1999, 57, pp. 965-973)

The subject of assay [3] is TNF-α. Description: In vitro measurement of TNF-α production in LPS-stimulated human PBMC (ELISA). The assay is classed as cell-based. The settings on record: 100 nM compound, LPS 1 μg/mL, 18 h, NA: Not active. How it is done:
Biological Activity In Vitro Measurement of Tumor Necrosis Factor Alpha (TNF-α):
This assay determines the effect of test compounds on the production of TNF-α in human Peripheral Blood Mononuclear Cells (PBMC). Compounds were tested for their ability to inhibit the activity of TNF α in human PBMC. PBMC were isolated from blood (of healthy volunteers) using BD Vacutainer CPT™ (Cell preparation tube, BD Bio Science) and suspended in RPMI (Rosewell park memorial institute) medium (Physiol. Res. 2003, 52, 593-598). The test compounds were pre-incubated with PBMC (0.5 million/incubation well) for 15 minutes at 37° C. and then stimulated with Lipopolysaccharide (Escherichia coli: B4; 1 μg/mL) for 18 h at 37° C. in 5% CO2. The levels of TNF-α in the cell culture medium were estimated using enzyme-linked immunosorbent assay performed in a 96 well format as per the procedure of the manufacturer (Cayman Chemical, Ann Arbor, USA).
For orientation: An ELISA detects its analyte on a solid surface through an enzyme-linked reagent.

The subject of the next assay is LPS induced neutrophilia. In words: LPS induced neutrophilia model for asthma and COPD. The format is in vivo, Male Sprague Dawley rats. The settings on record: rats, BAL 6 h after LPS exposure. On the procedure: LPS Induced Neutrophilia Model for Asthma and COPD:
LPS induced neutrophilia in Sprague Dawley rats was performed using the protocol described in Pulm Pharmacol & Ther 17,133-140, 2004. Male Sprague. Dawley rats were acclimatized to laboratory conditions five to seven days prior to the start of the experiment. They were randomly distributed to various groups based on body weight. Except normal group all the animals were exposed to LPS 100 μg/ml for 40 minutes. The rats were dosed with the test compound suspended in the vehicle containing 0.25% carboxymethylcellulose before half an hour of LPS exposure. BAL was performed 6 h after LPS exposure, total cell count and DLC was done and compared with control and the standard drug.

We go through 19 compounds from patent US8580795B2, “Heterocyclic compounds as phosphodiesterase inhibitors” (Orchid Chemicals & Pharmaceuticals Limited, priority 2009, dated 2013).

Sequence of human PDE4B enzyme (PDE4B2) (Q07343 1-564 isoform Q07343-2): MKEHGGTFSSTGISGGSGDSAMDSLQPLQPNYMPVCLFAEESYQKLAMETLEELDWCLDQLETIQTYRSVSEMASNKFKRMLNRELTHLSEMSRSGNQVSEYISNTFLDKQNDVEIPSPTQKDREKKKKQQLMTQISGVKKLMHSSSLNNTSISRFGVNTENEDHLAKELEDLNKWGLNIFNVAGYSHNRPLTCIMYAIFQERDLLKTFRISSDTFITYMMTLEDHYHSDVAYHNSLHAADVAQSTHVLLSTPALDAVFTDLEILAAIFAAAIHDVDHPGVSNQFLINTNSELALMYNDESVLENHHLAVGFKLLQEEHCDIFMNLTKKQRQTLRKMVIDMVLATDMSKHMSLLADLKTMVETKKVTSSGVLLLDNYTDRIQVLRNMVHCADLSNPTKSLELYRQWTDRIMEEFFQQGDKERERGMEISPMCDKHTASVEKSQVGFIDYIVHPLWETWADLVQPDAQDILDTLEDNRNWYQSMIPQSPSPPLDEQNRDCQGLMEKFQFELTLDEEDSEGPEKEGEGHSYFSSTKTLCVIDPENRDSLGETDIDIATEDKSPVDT

Broadly, the inhibition is the relative decrease from the control value, in per cent. Consider `COc1ccc(-c2nc(CCC(=O)Nc3c(Cl)cncc3Cl)cs2)c2c1oc1ccccc12` [Example 11, N-(3,5-Dichloropyridin-4-yl)-3-(2-(4-methoxydibenzo[b,d]furan-1-yl)-1,3-thiazol-4-yl)propanamide], for which, in the assay on TNF-α [1], the “TNF-α Inhibition (%)” value was determined as 46.70%. The compound further yielded an inhibition at 0.1 µM in assay [2] of 32.8%.

With `COc1ccc(-c2nc(C(=O)Nc3c(Cl)cncc3Cl)cs2)c2c1oc1ccccc12` [Example 13, N-(3,5-Dichloropyridin-4-yl)-2-(4-methoxydibenzo[b,d]furan-1-yl)-1,3-thiazole-4-carboxamide], the “TNF-α Inhibition (%)” value in the assay on TNF-α [1] is reported as 37.83%. Also, the results for the inhibition at 0.1 µM (in the assay with TNF-α [3]; in assay [2]) were 26.1% and 70.3%, respectively.

`O=C(Nc1c(Cl)cncc1Cl)c1csc(-c2ccc(OC(F)F)c3oc4ccccc4c23)n1` [Example 14, N-(3,5-dichloropyridin-4-yl)-2-(4-(difluoromethoxy)dibenzo[b,d]furan-1-yl)-1,3-thiazole-4-carboxamide]: the “TNF-α Inhibition (%)” value in the assay on TNF-α [1] was determined as 40.67%. Moreover, the inhibition at 0.1 µM in the assay on TNF-α [3] is 14.5%; in assay [2] it was 42.3%.

Regarding `COc1ccc(-c2nc(C(N)=O)cs2)c2c1oc1ccccc12` [Example 25, 2-(4-Methoxydibenzo[b,d]furan-1-yl)-1,3-thiazole-4-carboxamide], the inhibition at 0.1 µM worked out at 35.5% with TNF-α [3] and 15.4% in assay [2].

Turning to `COc1ccc(-c2nc(C(=O)Nc3c(Cl)cncc3Cl)c(C)s2)c2c1oc1ccccc12` [Example 28, N-(3,5-Dichloropyridin-4-yl)-2-(4-methoxydibenzo[b,d]furan-1-yl)-5-methyl-1,3-thiazole-4-carboxamide], 0.1 µM produced 0.88% inhibition in the assay on TNF-α [3].

With `CCNC(=O)c1nc(-c2ccc(OC)c3oc4ccccc4c23)sc1C` [Example 29, N-Ethyl-2-(4-methoxydibenzo[b,d]furan-1-yl]-5-methyl-1,3-thiazole-4-carboxamide], the inhibition at 0.1 µM in the assay with TNF-α [3] was 18.4%.

In turn, `COc1ccc(-c2nc(C(=O)NN3CCOCC3)cs2)c2c1oc1ccccc12` [Example 30, 2-(4-Methoxydibenzo[b,d]furan-1-yl)-N-morpholino-1,3-thiazole-4-carboxamide] yielded an inhibition at 0.1 µM in the assay on TNF-α [3] of 21.9%.

On to `COc1ccc(-c2nc(C(=O)NC3CCC(O)CC3)cs2)c2c1oc1ccccc12` (stereo not shown) [Example 31, N-(4-Hydroxycyclohexyl)-2-(4-methoxydibenzo[b,d]furan-1-yl)-1,3-thiazole-4-carboxamide], for which 0.1 µM produced 63.1% inhibition in the assay on TNF-α [3].

As to `CS(=O)(=O)Nc1ccc2oc3c(OC(F)F)ccc(-c4nc(C(=O)Nc5c(Cl)cncc5Cl)cs4)c3c2c1` [Example 34], the inhibition at 0.1 µM in the assay on TNF-α [3] was 25.1%.

Consider `Cc1sc(-c2ccc(OC(F)F)c3oc4ccc(NS(C)(=O)=O)cc4c23)nc1C(=O)NC1CCC(O)CC1` (stereo not shown) [Example 35, 2-(4-(Difluoromethoxy)-8-(methylsulfonamido)dibenzo[b,d]furan-1-yl)-N-(4-hydroxycyclohexyl)-5-methyl-1,3thiazole-4-carboxamide], for which, in the assay on LPS induced neutrophilia (Dose 10 mg/kg), the “LPS induced neutrophilia % inhibition” value came out at 19.29%. For the same compound, in the assay with TNF-α [3], testing at 0.1 µM gave an inhibition of 61.8%.

In the assay on TNF-α [3], `CC(=O)Nc1ccc2oc3c(OC(F)F)ccc(-c4nc(C(=O)O)cs4)c3c2c1` [Example 36, 2-[8-(Acetylamino)-4-(difluoromethoxy)dibenzo[b,d]furan-1-yl]-1,3-thiazole-4-carboxylic acid] showed an inhibition at 0.1 µM of 15.5%.

As to `CONC(=O)c1nc(-c2ccc(OC(F)F)c3oc4ccc(NS(C)(=O)=O)cc4c23)sc1C` [Example 37, 2-(4-(Difluoromethoxy)-8-(methylsulfonamido)dibenzo[b,d]furan-1-yl)-N-methoxy-5-methyl-1,3-thiazole-4-carboxamide], 0.1 µM produced 35.4% inhibition with TNF-α [3].

For `CC(=O)Nc1ccc2oc3c(OC(F)F)ccc(-c4nc(C(=O)NC5CCC(O)CC5)cs4)c3c2c1` (stereo not shown) [Example 38, 2-(8-Acetamido-4-(difluoromethoxy)dibenzo[b,d]furan-1-yl)-N-(4-hydroxycyclohexyl)-1,3-thiazole-4-carboxamide], the “LPS induced neutrophilia % inhibition” value in the assay on LPS induced neutrophilia (Dose 5 mg/kg) is reported as 35.68%. In addition, the inhibition at 0.1 µM in the assay on TNF-α [3] is 83.4%.

For the compound `O=C(NC1CCC(O)CC1)c1csc(-c2ccc(OC(F)F)c3oc4ccccc4c23)n1` (stereo not shown) [Example 39, 2-((4-Difluoromethoxy)dibenzo[b,d]furan-1-yl)-N-(4-hydroxycyclohexyl)-1,3-thiazole-4-carboxamide], the “LPS induced neutrophilia % inhibition” value in the assay on LPS induced neutrophilia (Dose 10 mg/kg) is reported as 57.98%. Besides, the inhibition at 0.1 µM in the assay with TNF-α [3] stood at 77.7%.

`O=C(NCC(F)(F)F)c1csc(-c2ccc(OC(F)F)c3oc4ccccc4c23)n1` [Example 40, 2-((4-Difluoromethoxy)dibenzo[b,d]furan-1-yl)-N-(2,2,2-trifluoroethyl)-1,3-thiazole-4-carboxamide] gave an inhibition at 0.1 µM in the assay on TNF-α [3] of 26.7%.

Compound `CONC(=O)c1csc(-c2ccc(OC(F)F)c3oc4ccccc4c23)n1` [Example 42, 2-((4-Difluoromethoxy)dibenzo[b,d]furan-1-yl)-N-methoxy-1,3-thiazole-4-carboxamide] returned an inhibition at 0.1 µM in the assay with TNF-α [3] of 8.5%.

Compound `O=C(NC1CCC(O)CC1)c1csc(-c2ccc(OC(F)F)c3oc4ccc(C(F)(F)F)cc4c23)n1` (stereo not shown) [Example 44, 2-(4-(Difluoromethoxy)-8-(trifluoromethyl)dibenzo[b,d]furan-1-yl)-N-(4-hydroxycyclohexyl)-1,3-thiazole-4-carboxamide] yielded an inhibition at 0.1 µM in the assay on TNF-α [3] of 17.2%.

For the compound `CS(=O)(=O)Nc1ccc2oc3c(OC(F)F)ccc(-c4nc(C(=O)NC5CCC(O)CC5)cs4)c3c2c1` (stereo not shown) [Example 46, 2-(4-(Difluoromethoxy)-(methylsulfonamido)dibenzo[b,d]furan-1-yl)-N-(4-hydroxycyclohexyl)-1,3-thiazole-4-carboxamide], at 0.1 µM the inhibition in the assay with TNF-α [3] was 78.6%.

Turning to `CS(=O)(=O)Nc1ccc2oc3c(OC(F)F)ccc(-c4nc(C(=O)N[C@H]5CC[C@H](O)CC5)co4)c3c2c1` [Example 50, 2-(4-(Difluoromethoxy)-8-(methylsulfonamido)dibenzo[b,d]furan-1-yl)-N-(4-hydroxycyclohexyl)-1,3-oxazole-4-carboxamide], the “TNF-α Inhibition (%)” value in the assay on TNF-α [1] is 13.15%.
